Experimental data from US20090131468A1, “Bis-(Sulfonylamino) Derivatives in Therapy 065” (AstraZeneca AB, priority 2007, published 2009).

The molecules below were run against T1, human mPGES-1 (Homo sapiens, UniProt O14684) (assay: Microsomal prostaglandin E synthase biochemical assay). Conditions: microsome preparation containing human mPGES-1; PGH2 10.8 μM, GSH 2.5 mM, pH 6.8; PGE2 quantified by HTRF; average of at least n=2.
T1 sequence (O14684 1-152): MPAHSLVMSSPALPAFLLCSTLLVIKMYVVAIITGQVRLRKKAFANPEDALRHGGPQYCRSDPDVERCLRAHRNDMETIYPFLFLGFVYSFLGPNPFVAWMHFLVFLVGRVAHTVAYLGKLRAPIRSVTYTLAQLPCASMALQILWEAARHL
Experimental: Compounds were tested as inhibitors of microsomal prostaglandin E synthase activity in microsomal prostaglandin E synthase assays and whole cell assays. These assays measure prostaglandin E2 (PGE2) synthesis which is taken as a measure of prostaglandin E synthase activity. Microsomal prostaglandin E synthase biochemical assays used microsomal prostaglandin E synthase-1 in microsomal preparations. The source of the microsomes can be for example interleukin-1β-stimulated human A549 cells (which express human mPGES-1) or Sf9 cells transfected with plasmids encoding human mPGES-1 cDNA.
A solution of test compound was added to a diluted microsome preparation containing human mPGES-1 and pre-incubated for 15 minutes in potassium phosphate buffer pH 6.8 with cofactor glutathione (GSH). Corresponding solutions without test compound were used as positive controls, and corresponding solutions without test compound and without microsomes were used as negative controls. The enzymatic reaction was then started by addition of the substrate PGH2 in an organic solution (dry acetonitrile).
The reaction was stopped after one minute by adding an acidic solution (pH 1.9) of ferric chloride and citrate (final concentrations 7 mM and 47 mM respectively), by which the PGH2 was sequestered (the PGH2 is reduced to mainly 12-hydroxy heptadecatrineoic acid (12-HHT) which is not detected by the subsequent PGE2 detection step). The resulting solution was then pH neutralized by addition of potassium phosphate buffer, prior to diluting an aliquot of the resulting solution in a weak potassium phosphate buffer (50 mM, pH 6.8) containing 0.2% BSA (w/v). […] The PGE2 formed was quantified by use of a commercial HTRF based kit (catalogue #62PG2PEC or #62P2APEC from Cisbio International). 100% activity was defined as the PGE2 production in positive controls subtracted by the PGE2 production in the negative controls. IC50 values were then determined using standard procedures.
Work on `NS(=O)(=O)c1ccccc1S(=O)(=O)NC(=O)c1ccc(Br)cc1Cl` [Example 11, 4-Bromo-2-chloro-N-(2-sulfamoylphenyl)sulfonyl-benzamide] yielded an IC50 of 5500 nM. In the case of `CC(C)(O)c1cc2cc(C(=O)NS(=O)(=O)c3ccccc3S(N)(=O)=O)ccc2o1` [Example 124, 2-(2-Hydroxypropan-2-yl)-N-(2-sulfamoylphenylsulfonyl)benzofuran-5-carboxamide], the IC50 is reported as 21000 nM. `Cc1cc(C(=O)NS(=O)(=O)c2ccccc2S(N)(=O)=O)ccc1-c1cc2ccccc2o1` [Example 45, 4-(Benzofuran-2-yl)-3-methyl-N-(2-sulfamoylphenylsulfonyl)benzamide] gave an IC50 of 5.5 nM. For `COc1cc(C(=O)NS(=O)(=O)c2ccccc2S(N)(=O)=O)cnc1C#CC1CCCCC1` [Example 138, 6-(Cyclohexylethynyl)-5-methoxy-N-(2-sulfamoylphenylsulfonyl)nicotinamide], the IC50 was 12 nM. Molecule `Cc1nc(-c2ccc(C(F)(F)F)cc2)sc1C(=O)NS(=O)(=O)c1ccccc1S(N)(=O)=O` [Example 26, 4-Methyl-N-(2-sulfamoylphenyl)sulfonyl-2-[4-(trifluoromethyl)phenyl]1,3-thiazole-5-carboxamide] has an IC50 of 120 nM. `NS(=O)(=O)c1ccccc1S(=O)(=O)NC(=O)c1ccc(-c2cc3ccccc3o2)cn1` [Example 1, 5-Benzofuran-2-yl-N-(2-sulfamoylphenyl)sulfonyl-pyridine-2-carboxamide] showed an IC50 of 240 nM. With `NS(=O)(=O)c1ccccc1S(=O)(=O)NC(=O)c1cnc2ccccc2c1` [Example 162, Benzene-1,2-disulfonic acid 1-amide 2[(quinoline-3-carbonyl)-amide]] the IC50 was 11000 nM. `NS(=O)(=O)c1ccccc1S(=O)(=O)NC(=O)c1ccc(COCCC(F)(F)F)cc1` [Example 97, N-(2-Sulfamoylphenylsulfonyl)-4-((3,3,3-trifluoropropoxy)methyl)benzamide] showed an IC50 of 5100 nM. `NS(=O)(=O)c1ccccc1S(=O)(=O)NC(=O)c1cnc(C#Cc2ccc(Cl)cc2)nc1` [Example 102, 2-((4-chlorophenyl)ethynyl)-N-(2-sulfamoylphenylsulfonyl)pyrimidine-5-carboxamide] was tested, and the IC50 was 53 nM. `CC(C)(O)C#Cc1cccc(-c2ccccc2C(=O)NS(=O)(=O)c2ccccc2S(N)(=O)=O)c1` [Example 64, 3′-(3-Hydroxy-3-methylbut-1-ynyl)-N-(2-sulfamoylphenylsulfonyl)biphenyl-2-carboxamide] gave an IC50 of 6200 nM. `NS(=O)(=O)c1ccccc1S(=O)(=O)NC(=O)c1ccc(-c2cc3ccccc3o2)cc1` [Example 3, 4-Benzofuran-2-yl-N-(2-sulfamoylphenyl)sulfonyl-benzamide] gave an IC50 of 5.8 nM. `CCC(O)(C#Cc1ccc(C(=O)NS(=O)(=O)c2ccccc2S(N)(=O)=O)cc1)CC` [Example 56, 4-(3-Ethyl-3-hydroxypent-1-ynyl)-N-(2-sulfamoylphenylsulfonyl)benzamide] was tested, and the IC50 was 2300 nM. In the case of `NS(=O)(=O)c1ccccc1S(=O)(=O)NC(=O)c1ccc2oc(-c3ccccc3)cc2c1` [Example 25, 2-Phenyl-N-(2-sulfamoylphenyl)sulfonyl-benzofuran-5-carboxamide], the IC50 is reported as 20 nM. For `COc1cc(C(=O)NS(=O)(=O)c2ccccc2S(N)(=O)=O)ccc1-c1cc2ccccc2o1` [Example 50, 4-(Benzofuran-2-yl)-3-methoxy-N-(2-sulfamoylphenylsulfonyl)benzamide], the IC50 was 3.2 nM. For `NS(=O)(=O)c1ccccc1S(=O)(=O)NC(=O)C1(c2ccccc2)CCCCC1` [Example 18, 1-Phenyl-N-(2-sulfamoylphenyl)sulfonyl-cyclohexane-1-carboxamide], the IC50 was 100 nM. In the case of `Cc1cc(C(=O)NS(=O)(=O)c2ccccc2S(N)(=O)=O)ccc1Br` [Example 12, 4-Bromo-3-methyl-N-(2-sulfamoylphenyl)sulfonyl-benzamide], the IC50 is reported as 170 nM. `COc1cc(C(=O)NS(=O)(=O)c2ccccc2S(N)(=O)=O)cnc1C#CC1CCCC1` [Example 137, 6-(Cyclopentylethynyl)-5-methoxy-N-(2-sulfamoylphenylsulfonyl)nicotinamide] gave an IC50 of 20 nM. `NS(=O)(=O)c1ccccc1S(=O)(=O)NC(=O)c1ccc(-c2nc3ccccc3o2)cc1` [Example 8, 4-Benzooxazol-2-yl-N-(2-sulfamoylphenyl)sulfonyl-benzamide] was tested, and the IC50 was 86 nM. `NS(=O)(=O)c1ccccc1S(=O)(=O)NC(=O)c1ccc(C#CC2CCCCC2)cn1` [Example 88, 5-(Cyclohexylethynyl)-N-(2-sulfamoylphenylsulfonyl)picolinamide] gave an IC50 of 140 nM. With `NS(=O)(=O)c1ccccc1S(=O)(=O)NC(=O)c1ccc(Cl)cc1O` [Example 81, 4-Chloro-2-hydroxy-N-(2-sulfamoylphenylsulfonyl)benzamide] the IC50 was 1000 nM. For `COc1cc(C(=O)NS(=O)(=O)c2ccccc2S(N)(=O)=O)ccc1C#CC(C)(C)OC` [Example 114, 3-Methoxy-4-(3-methoxy-3-methylbut-1-ynyl)-N-(2-sulfamoylphenylsulfonyl)-benzamide], the IC50 was 1600 nM. Molecule `NS(=O)(=O)c1ccccc1S(=O)(=O)NC(=O)c1c(F)cc(-c2cc3ccccc3o2)cc1F` [Example 152, 4-(Benzofuran-2-yl)-2,6-difluoro-N-(2-sulfamoylphenylsulfonyl)benzamide] has an IC50 of 570 nM. `CC(C)(C)c1ccc(C(=O)NS(=O)(=O)c2ccccc2S(N)(=O)=O)cc1` [Example 32, N-(2-Sulfamoylphenyl)sulfonyl-4-tert-butyl-benzamide] showed an IC50 of 1500 nM. With `COCCOCCOc1cc(C(=O)NS(=O)(=O)c2ccccc2S(N)(=O)=O)cnc1-c1cc2ccccc2o1` [Example 135, 6-(Benzofuran-2-yl)-5-(2-(2-methoxyethoxy)ethoxy)-N-(2-sulfamoylphenylsulfonyl)-nicotinamide] the IC50 was 81 nM. Molecule `NS(=O)(=O)c1ccccc1S(=O)(=O)NC(=O)c1ccc(-c2cc3ccccc3o2)cc1C(F)(F)F` [Example 150, 4-(Benzofuran-2-yl)-N-(2-sulfamoylphenylsulfonyl)-2-(trifluoromethyl)benzamide] has an IC50 of 360 nM. For `NS(=O)(=O)c1ccccc1S(=O)(=O)NC(=O)c1ccc(C#CC2CCCC2)c(CO)c1` [Example 98, 4-(Cyclopentylethynyl)-3-(hydroxymethyl)-N-(2-sulfamoylphenylsulfonyl)benzamide], the IC50 was 110 nM. With `COc1c(-c2cc3ccccc3o2)ccc(C(=O)NS(=O)(=O)c2ccccc2S(N)(=O)=O)c1F` [Example 87, 4-(Benzofuran-2-yl)-2-fluoro-3-methoxy-N-(2-sulfamoylphenylsulfonyl)benzamide] the IC50 was 16 nM. With `NS(=O)(=O)c1ccccc1S(=O)(=O)NC(=O)c1ccc(Br)cc1` [Example 10, 4-Bromo-N-(2-sulfamoylphenyl)sulfonyl-benzamide] the IC50 was 440 nM. In the case of `NS(=O)(=O)c1ccccc1S(=O)(=O)NC(=O)c1ccc(C#Cc2ccccc2)nc1` [Example 55, 6-(Phenylethynyl)-N-(2-sulfamoylphenylsulfonyl)nicotinamide], the IC50 is reported as 120 nM. Work on `CC(C)C#Cc1ccc(C(=O)NS(=O)(=O)c2ccccc2S(N)(=O)=O)cc1` [Example 113, 4-(3-Methylbut-1-ynyl)-N-(2-sulfamoylphenylsulfonyl)benzamide] yielded an IC50 of 80 nM. Molecule `CC(C)Oc1cc(C(=O)NS(=O)(=O)c2ccccc2S(N)(=O)=O)ccc1C#CC(C)(C)C` [Example 128, 4-(3,3-Dimethylbut-1-ynyl)-3-isopropoxy-N-(2-sulfamoylphenylsulfonyl)benzamide] has an IC50 of 45 nM.
